In the NIST ThermoML archive (doi:10.1016/j.fluid.2017.09.005):
Numbers after ± are expanded uncertainties.

Assay: xn = mol fraction of the nth substance listed
Settings: Liquid; for viscosity: Pressure drop in straight capillary; for mass density: Vibrating tube method

CO [methanol] + O
viscosity (523.2 K, 20000 kPa, x1 = 0.1): 0.116 ± 0.009 mPa·s
viscosity (523.2 K, 20000 kPa, x1 = 0.2): 0.112 ± 0.009 mPa·s
viscosity (523.2 K, 20000 kPa, x1 = 0.3): 0.108 ± 0.009 mPa·s
viscosity (523.2 K, 20000 kPa, x1 = 0.4): 0.102 ± 0.009 mPa·s
viscosity (523.2 K, 20000 kPa, x1 = 0.6): 0.09 ± 0.008 mPa·s
viscosity (523.2 K, 20000 kPa, x1 = 0.8): 0.079 ± 0.008 mPa·s
viscosity (523.2 K, 20000 kPa, x1 = 1): 0.07 ± 0.008 mPa·s
mass density (523.2 K, 20000 kPa, x1 = 0.1): 767.8 ± 3 kg/m3
mass density (523.2 K, 20000 kPa, x1 = 0.2): 724.7 ± 3.2 kg/m3
mass density (523.2 K, 20000 kPa, x1 = 0.3): 686.4 ± 3.4 kg/m3
mass density (523.2 K, 20000 kPa, x1 = 0.4): 652.8 ± 3.6 kg/m3
mass density (523.2 K, 20000 kPa, x1 = 0.6): 597.1 ± 4 kg/m3
mass density (523.2 K, 20000 kPa, x1 = 0.8): 552.1 ± 4.2 kg/m3
mass density (523.2 K, 20000 kPa, x1 = 1): 517.5 ± 4.2 kg/m3
viscosity (523.2 K, 30000 kPa, x1 = 0.1): 0.118 ± 0.009 mPa·s
viscosity (523.2 K, 30000 kPa, x1 = 0.2): 0.117 ± 0.009 mPa·s
viscosity (523.2 K, 30000 kPa, x1 = 0.3): 0.114 ± 0.009 mPa·s
viscosity (523.2 K, 30000 kPa, x1 = 0.4): 0.11 ± 0.009 mPa·s
viscosity (523.2 K, 30000 kPa, x1 = 0.6): 0.1 ± 0.009 mPa·s
viscosity (523.2 K, 30000 kPa, x1 = 0.8): 0.09 ± 0.008 mPa·s
viscosity (523.2 K, 30000 kPa, x1 = 1): 0.08 ± 0.008 mPa·s
mass density (523.2 K, 30000 kPa, x1 = 0.1): 781.4 ± 2.9 kg/m3
mass density (523.2 K, 30000 kPa, x1 = 0.2): 740.7 ± 3 kg/m3
mass density (523.2 K, 30000 kPa, x1 = 0.3): 705.9 ± 3.1 kg/m3
mass density (523.2 K, 30000 kPa, x1 = 0.4): 677 ± 3.1 kg/m3
mass density (523.2 K, 30000 kPa, x1 = 0.6): 628.4 ± 3.2 kg/m3
mass density (523.2 K, 30000 kPa, x1 = 0.8): 591.4 ± 3.2 kg/m3
mass density (523.2 K, 30000 kPa, x1 = 1): 563.57 ± 3.1 kg/m3
viscosity (523.2 K, 40000 kPa, x1 = 0.1): 0.121 ± 0.009 mPa·s
viscosity (523.2 K, 40000 kPa, x1 = 0.2): 0.121 ± 0.009 mPa·s
viscosity (523.2 K, 40000 kPa, x1 = 0.3): 0.119 ± 0.009 mPa·s
viscosity (523.2 K, 40000 kPa, x1 = 0.4): 0.115 ± 0.009 mPa·s
viscosity (523.2 K, 40000 kPa, x1 = 0.6): 0.107 ± 0.009 mPa·s
viscosity (523.2 K, 40000 kPa, x1 = 0.8): 0.098 ± 0.009 mPa·s
viscosity (523.2 K, 40000 kPa, x1 = 1): 0.089 ± 0.008 mPa·s
mass density (523.2 K, 40000 kPa, x1 = 0.1): 791.9 ± 2.9 kg/m3
mass density (523.2 K, 40000 kPa, x1 = 0.2): 754.4 ± 2.9 kg/m3
mass density (523.2 K, 40000 kPa, x1 = 0.3): 722.3 ± 2.9 kg/m3
mass density (523.2 K, 40000 kPa, x1 = 0.4): 694.7 ± 3 kg/m3
mass density (523.2 K, 40000 kPa, x1 = 0.6): 650.9 ± 3 kg/m3
mass density (523.2 K, 40000 kPa, x1 = 0.8): 618.2 ± 3 kg/m3
mass density (523.2 K, 40000 kPa, x1 = 1): 593.3 ± 2.9 kg/m3
viscosity (573.2 K, 20000 kPa, x1 = 0.1): 0.084 ± 0.008 mPa·s
viscosity (573.2 K, 20000 kPa, x1 = 0.2): 0.08 ± 0.008 mPa·s
viscosity (573.2 K, 20000 kPa, x1 = 0.3): 0.074 ± 0.008 mPa·s
viscosity (573.2 K, 20000 kPa, x1 = 0.4): 0.067 ± 0.008 mPa·s
viscosity (573.2 K, 20000 kPa, x1 = 0.6): 0.054 ± 0.008 mPa·s
viscosity (573.2 K, 20000 kPa, x1 = 0.8): 0.045 ± 0.008 mPa·s
viscosity (573.2 K, 20000 kPa, x1 = 1): 0.042 ± 0.008 mPa·s
mass density (573.2 K, 20000 kPa, x1 = 0.1): 674.5 ± 4.2 kg/m3
mass density (573.2 K, 20000 kPa, x1 = 0.2): 619.8 ± 5.4 kg/m3
mass density (573.2 K, 20000 kPa, x1 = 0.3): 569.3 ± 5.8 kg/m3
mass density (573.2 K, 20000 kPa, x1 = 0.4): 522.3 ± 5.6 kg/m3
mass density (573.2 K, 20000 kPa, x1 = 0.6): 439.6 ± 5.2 kg/m3
mass density (573.2 K, 20000 kPa, x1 = 0.8): 380.5 ± 4.8 kg/m3
mass density (573.2 K, 20000 kPa, x1 = 1): 345.3 ± 4.5 kg/m3
viscosity (573.2 K, 30000 kPa, x1 = 0.1): 0.089 ± 0.008 mPa·s
viscosity (573.2 K, 30000 kPa, x1 = 0.2): 0.085 ± 0.008 mPa·s
viscosity (573.2 K, 30000 kPa, x1 = 0.3): 0.078 ± 0.008 mPa·s
viscosity (573.2 K, 30000 kPa, x1 = 0.4): 0.078 ± 0.008 mPa·s
viscosity (573.2 K, 30000 kPa, x1 = 0.6): 0.072 ± 0.008 mPa·s
viscosity (573.2 K, 30000 kPa, x1 = 0.8): 0.065 ± 0.008 mPa·s
viscosity (573.2 K, 30000 kPa, x1 = 1): 0.063 ± 0.008 mPa·s
mass density (573.2 K, 30000 kPa, x1 = 0.1): 696.2 ± 3.7 kg/m3
mass density (573.2 K, 30000 kPa, x1 = 0.2): 650.4 ± 3.8 kg/m3
mass density (573.2 K, 30000 kPa, x1 = 0.3): 610.2 ± 3.9 kg/m3
mass density (573.2 K, 30000 kPa, x1 = 0.4): 575.5 ± 4 kg/m3
mass density (573.2 K, 30000 kPa, x1 = 0.6): 520.4 ± 4.1 kg/m3
mass density (573.2 K, 30000 kPa, x1 = 0.8): 482.3 ± 4 kg/m3
mass density (573.2 K, 30000 kPa, x1 = 1): 457.63 ± 3.8 kg/m3
viscosity (573.2 K, 40000 kPa, x1 = 0.1): 0.094 ± 0.009 mPa·s
viscosity (573.2 K, 40000 kPa, x1 = 0.2): 0.091 ± 0.008 mPa·s
viscosity (573.2 K, 40000 kPa, x1 = 0.3): 0.087 ± 0.008 mPa·s
viscosity (573.2 K, 40000 kPa, x1 = 0.4): 0.084 ± 0.008 mPa·s
viscosity (573.2 K, 40000 kPa, x1 = 0.6): 0.075 ± 0.008 mPa·s
viscosity (573.2 K, 40000 kPa, x1 = 0.8): 0.069 ± 0.008 mPa·s
viscosity (573.2 K, 40000 kPa, x1 = 1): 0.065 ± 0.008 mPa·s
mass density (573.2 K, 40000 kPa, x1 = 0.1): 714.3 ± 3.6 kg/m3
mass density (573.2 K, 40000 kPa, x1 = 0.2): 673.1 ± 3.6 kg/m3
mass density (573.2 K, 40000 kPa, x1 = 0.3): 638 ± 3.6 kg/m3
mass density (573.2 K, 40000 kPa, x1 = 0.4): 608 ± 3.7 kg/m3
mass density (573.2 K, 40000 kPa, x1 = 0.6): 562.4 ± 3.7 kg/m3
mass density (573.2 K, 40000 kPa, x1 = 0.8): 530.6 ± 3.6 kg/m3
mass density (573.2 K, 40000 kPa, x1 = 1): 511 ± 3.6 kg/m3
viscosity (618.2 K, 20000 kPa, x1 = 0.1): 0.06 ± 0.008 mPa·s
viscosity (618.2 K, 20000 kPa, x1 = 0.2): 0.035 ± 0.008 mPa·s
viscosity (618.2 K, 20000 kPa, x1 = 0.3): 0.026 ± 0.008 mPa·s
viscosity (618.2 K, 20000 kPa, x1 = 0.4): 0.025 ± 0.008 mPa·s
viscosity (618.2 K, 20000 kPa, x1 = 0.6): 0.027 ± 0.008 mPa·s
viscosity (618.2 K, 20000 kPa, x1 = 0.8): 0.027 ± 0.008 mPa·s
viscosity (618.2 K, 20000 kPa, x1 = 1): 0.029 ± 0.008 mPa·s
mass density (618.2 K, 20000 kPa, x1 = 0.1): 497.6 ± 6 kg/m3
mass density (618.2 K, 20000 kPa, x1 = 0.2): 299.3 ± 7.4 kg/m3
mass density (618.2 K, 20000 kPa, x1 = 0.3): 208.9 ± 8.3 kg/m3
mass density (618.2 K, 20000 kPa, x1 = 0.4): 198.2 ± 8 kg/m3
mass density (618.2 K, 20000 kPa, x1 = 0.6): 198.4 ± 6.4 kg/m3
mass density (618.2 K, 20000 kPa, x1 = 0.8): 203.9 ± 5.3 kg/m3
mass density (618.2 K, 20000 kPa, x1 = 1): 210.5 ± 4.6 kg/m3
viscosity (618.2 K, 30000 kPa, x1 = 0.1): 0.071 ± 0.008 mPa·s
viscosity (618.2 K, 30000 kPa, x1 = 0.2): 0.065 ± 0.008 mPa·s
viscosity (618.2 K, 30000 kPa, x1 = 0.3): 0.058 ± 0.008 mPa·s
viscosity (618.2 K, 30000 kPa, x1 = 0.4): 0.052 ± 0.008 mPa·s
viscosity (618.2 K, 30000 kPa, x1 = 0.6): 0.047 ± 0.008 mPa·s
viscosity (618.2 K, 30000 kPa, x1 = 0.8): 0.044 ± 0.008 mPa·s
viscosity (618.2 K, 30000 kPa, x1 = 1): 0.043 ± 0.008 mPa·s
mass density (618.2 K, 30000 kPa, x1 = 0.1): 586 ± 4.5 kg/m3
mass density (618.2 K, 30000 kPa, x1 = 0.2): 524.1 ± 5.1 kg/m3
mass density (618.2 K, 30000 kPa, x1 = 0.3): 473.1 ± 5.3 kg/m3
mass density (618.2 K, 30000 kPa, x1 = 0.4): 430.4 ± 5.3 kg/m3
mass density (618.2 K, 30000 kPa, x1 = 0.6): 381.7 ± 4.9 kg/m3
mass density (618.2 K, 30000 kPa, x1 = 0.8): 360.2 ± 4.7 kg/m3
mass density (618.2 K, 30000 kPa, x1 = 1): 350.4 ± 4.6 kg/m3
viscosity (618.2 K, 40000 kPa, x1 = 0.1): 0.078 ± 0.008 mPa·s
viscosity (618.2 K, 40000 kPa, x1 = 0.2): 0.073 ± 0.008 mPa·s
viscosity (618.2 K, 40000 kPa, x1 = 0.3): 0.069 ± 0.008 mPa·s
viscosity (618.2 K, 40000 kPa, x1 = 0.4): 0.065 ± 0.008 mPa·s
viscosity (618.2 K, 40000 kPa, x1 = 0.6): 0.059 ± 0.008 mPa·s
viscosity (618.2 K, 40000 kPa, x1 = 0.8): 0.055 ± 0.008 mPa·s
viscosity (618.2 K, 40000 kPa, x1 = 1): 0.053 ± 0.008 mPa·s
mass density (618.2 K, 40000 kPa, x1 = 0.1): 624.9 ± 4.1 kg/m3
mass density (618.2 K, 40000 kPa, x1 = 0.2): 578.5 ± 4.2 kg/m3
mass density (618.2 K, 40000 kPa, x1 = 0.3): 544.1 ± 4.2 kg/m3
mass density (618.2 K, 40000 kPa, x1 = 0.4): 512 ± 4.2 kg/m3
mass density (618.2 K, 40000 kPa, x1 = 0.6): 470.3 ± 4.1 kg/m3
mass density (618.2 K, 40000 kPa, x1 = 0.8): 446.2 ± 4.1 kg/m3
mass density (618.2 K, 40000 kPa, x1 = 1): 427.7 ± 4.1 kg/m3
